# Where “and” joins values, the source holds several entries; their conditions need not be identical. Identical values can stand only once. Like-named read-outs stand apart in the source and are kept apart here.
# Legend:
# DIGSA = format: in vivo, Digitaria sanguinalis
# Method: Seeds or nutlets of the desired test plant species were planted in a soil matrix prepared by mixing a loam or sandy loam soil (e.g., 28.6 percent silt, 18.8 percent clay, and 52.6 percent sand, with a pH of about 5.8 and an organic matter content of about 1.8 percent) and calcareous grit in an 80 to 20 ratio. The soil matrix was contained in plastic pots with a volume of 1 quart and a surface area of 83.6 square centimeters (cm^2). […] The plants were grown for 8-22 days in a greenhouse with an approximate 14 hour (h) photoperiod which was maintained at about 29° C. during the day and 26° C. during the night. Nutrients (Peters Excel® 15-5-15 5-Ca 2-Mg and iron chelate) were applied in the irrigation solution as needed and water was added on a regular basis. Supplemental lighting was provided with overhead metal halide 1000-Watt lamps as necessary. The plants were employed for testing when they reached the first through fourth true leaf stage.
# Treatments consisted of the acid or esters of 4-amino-3-chloro-6-(4-chloro-2-fluoro-3-methoxyphenyl)-5-fluoropyridine-2-carboxylic acid (Compound A), each formulated as an SC (suspension concentrate), and various insecticidal components alone and in combination. Forms of compound A were applied on an acid equivalent basis.
# For treatments comprised of formulated compounds, measured amounts of compounds were placed individually in 25 mL glass vials and diluted in a volume of 1.25% volume per volume (v/v) Agri-Dex® crop oil concentrate to obtain 12× stock solutions. […] Application solutions were prepared by adding an appropriate amount of each stock solution (e.g., 1 mL) and diluted to the appropriate final concentrations with the addition of […] of an aqueous mixture of 1.25% (v/v) crop oil concentrate so that the final spray solutions contained 1.25+/−0.05% (v/v) crop oil concentrate.
# As required, additional water and/or 97:3 v/v acetone/DMSO was added to individual application solutions so that the final acetone and DMSO concentrations of the application solutions being compared were 8.1% and 0.25%, respectively.
# All stock solutions and applications solutions were visually inspected for compound compatibility prior to application. Spray solutions were applied to the plant material with an overhead Mandel track sprayer equipped with 8002E nozzles calibrated to deliver 187 L/ha over an application area of 0.503 square meters (m^2) at a spray height of 18 to 20 inches (46 to 50 cm) above average plant canopy height. Control plants were sprayed in the same manner with the solvent blank.
# (§1) The treated plants and control plants were placed in a greenhouse as described above and watered by sub-irrigation to prevent wash-off of the test compounds. After approximately 3 weeks, the condition of the test plants as compared to that of the untreated plants was determined visually and scored on a scale of 0 to 100 percent where 0 corresponds to no injury or growth inhibition and 100 corresponds to complete kill.
# Colby's equation was used to determine the herbicidal effects expected from the mixtures (Colby, S. R. Calculation of the synergistic and antagonistic response of herbicide combinations. Weeds 1967, 15, 20-22.).
# The following equation was used to calculate the expected activity of mixtures containing two active ingredients, A and B: Expected=A+B−(A×B/100)
# CYPRO = assay: In-water applied weed control, transplanted paddy rice (greenhouse); format: in vivo, Cyperus rotundus
# Method: (§2) Weed seeds or nutlets of the desired test plant species were planted in puddled soil (mud) prepared by mixing a shredded, non-sterilized mineral soil (50.5 percent silt, 25.5 percent clay, and 24 percent sand, with a pH of about 7.6 and an organic matter content of about 2.9 percent) and water at a 1:1 volumetric ratio. The prepared mud was dispensed in 365 mL aliquots into 16-ounce (oz.) non-perforated plastic pots with a surface area of 86.59 square centimeters (cm^2) leaving a headspace of 3 centimeters (cm) in each pot. Rice seeds were planted in Sun Gro MetroMix® 306 planting mixture, which typically has a pH of 6.0 to 6.8 and an organic matter content of about 30 percent, in plastic plug trays. Seedlings at the second or third leaf stage of growth were transplanted into 860 mL of mud contained in 32-oz. non-perforated plastic pots with a surface area of 86.59 cm^2 4 days prior to herbicide application. The paddy was created by filling the headspace of the pots with 2.5 to 3 cm of water. When required to ensure good germination and healthy plants, a fungicide treatment and/or other chemical or physical treatment was applied. The plants were grown for 4-22 days in a greenhouse with an approximate 14 h photoperiod which was maintained at about 29° C. during the day and about 26° C. during the night. Nutrients were added as Osmocote® (17:6:10, N:P:K+minor nutrients) at 2 grams (g) per 16-oz. pot and 4 g per 32-oz. pot. Water was added on a regular basis to maintain the paddy flood, and supplemental lighting was provided with overhead metal halide 1000-Watt lamps as necessary. The plants were employed for testing when they reached the first through fourth true leaf stage.
# Treatments consisted of the acid or esters of 4-amino-3-chloro-5-fluoro-6-(4-chloro-2-fluoro-3-methoxy-phenyl)pyridine-2-carboxylic acid (compound A) each formulated as an SC (suspension concentrate) and various herbicidal components alone and in combination. Forms of compound A were applied on an acid equivalent basis.
# Other […] components were applied on an active ingredient basis and consisted of etofenprox (technical grade material) and sulfoxaflor formulated as Sulfoxaflor WG.
# (§3) Treatment requirements for each compound or herbicidal component were calculated based upon the rates being tested, the concentration of active ingredient or acid equivalent in the formulation, an application volume of 2 mL per component per pot, and an application area of 86.59 cm^2 per pot.
# For formulated compounds, a measured amount was placed in an individual 100 or 200 mL glass vial and was dissolved in a volume of 1.25% (v/v) AgriDex® crop oil concentrate to obtain application solutions.
# For technical grade compounds, a weighed amount was placed in an individual 100 to 200 mL glass vial and was dissolved in a volume of acetone to obtain concentrated stock solutions.
# Applications were made by injecting with a pipetter appropriate amounts of the application solutions, individually and sequentially, into the aqueous layer of the paddy. Control plants were treated in the same manner with the solvent blank. Applications were made so that all treated plant material received the same concentrations of acetone and crop oil concentrate.
# as §1, with “and water was added as needed” for “and watered by sub-irrigation”, “to maintain a paddy flood.” for “to prevent wash-off of the test compounds.”, “3 weeks” for “3 weeks,”, “compared with” for “compared to”
# Colby's equation was used to determine the herbicidal effects expected from the mixtures (Colby, S. R. Calculation of the synergistic and antagonistic response of herbicide combinations. Weeds 1967, 15, 20-22.). […]
# ECHCG = assay: as above; format: in vivo, Echinochloa crus-galli; settings: 8 g ae/ha alone
# Method: as §2, with “stage. […]” for “stage.”
# as §3
# For formulated compounds, a measured amount was placed in an individual 100 or 200 mL glass vial and was dissolved in a volume of 1.25% (v/v) AgriDex® crop oil concentrate to obtain application solutions. […]
# The treated plants and control plants were placed in a greenhouse as described above and water was added as needed to maintain a paddy flood. After approximately 3 weeks the condition of the test plants as compared with that of the untreated plants was determined visually and scored on a scale of 0 to 100 percent where 0 corresponds to no injury or growth inhibition and 100 corresponds to complete kill. […]
compound,measurement,setting,value
"COc1c(Cl)ccc(-c2nc(C(=O)O)c(Cl)c(N)c2F)c1F [Compound A Acid, 4-amino-3-chloro-6-(4-chloro-2-fluoro-3-methoxyphenyl)-5-fluoropyridine-2-carboxylic acid]",Visual Weed Control (%) - 20 DAA DIGSA Obs,DIGSA; 4.38 g ae/ha alone,40%
same,Visual Weed Control (%) - 20 DAA DIGSA Obs,DIGSA; 5.3 g ae/ha alone,15%
same,Visual Weed Control (%) - 20 DAA DIGSA Obs,DIGSA; 10.6 g ae/ha alone,35%
same,Visual Weed Control (%) - 20 DAA DIGSA Obs,DIGSA; 21.2 g ae/ha alone,50%
COc1c(Cl)ccc(-c2nc(C(=O)OCc3ccccc3)c(Cl)c(N)c2F)c1F [Compound A Benzyl Ester],Visual Weed Control (%) - 20 DAA DIGSA Obs,DIGSA; 4.38 g ae/ha alone,40% and 25%
same,Visual Weed Control (%) - 20 DAA DIGSA Obs,DIGSA; 8 g ae/ha alone,20%
same,Visual Weed Control (%) - 21 DAA DIGSA Obs,DIGSA; 8 g ae/ha alone,10%
same,Visual Weed Control (%) - 22 DAA DIGSA Obs,DIGSA; 8 g ae/ha alone,13%
same,Visual Weed Control (%) - 20 DAA DIGSA Obs,DIGSA; 16 g ae/ha alone,23% and 30%
same,Visual Weed Control (%) - 22 DAA DIGSA Obs,DIGSA; 16 g ae/ha alone,18%
same,Visual Weed Control (%) - 20 DAA DIGSA Obs,DIGSA; 17.5 g ae/ha alone,15%
same,Visual Weed Control (%) - 19 DAA DIGSA Obs,DIGSA; 8 g ae/ha alone,30%
same,Visual Weed Control (%) - 19 DAA DIGSA Obs,DIGSA; 16 g ae/ha alone,35%
same,Visual Weed Control (%) - 19 DAA DIGSA Obs,DIGSA; 32 g ae/ha alone,40%
same,Visual Weed Control (%) - 22 DAA DIGSA Obs,"DIGSA; 22 DAA, 8 g ae/ha alone",10% and 13%
same,Visual Weed Control (%) - 22 DAA DIGSA Obs,"DIGSA; 22 DAA, 8 g ae/ha alone, second part of Table 18",13%
same,Visual Weed Control (%) - 22 DAA DIGSA Obs,"DIGSA; 22 DAA, 16 g ae/ha alone",25% and 18% and 20%
same,Visual Weed Control (%) - 22 DAA DIGSA Obs,"DIGSA; 22 DAA, 16 g ae/ha alone, second part of Table 18",18%
same,Visual Weed Control (%) - 22 DAA DIGSA Obs,"DIGSA; 22 DAA, 32 g ae/ha alone",40% and 28% and 25%
same,Visual Weed Control (%) - 22 DAA DIGSA Obs,"DIGSA; 22 DAA, 32 g ae/ha alone, second part of Table 18",28%
same,Visual Weed Control (%) - 20 DAA DIGSA Obs,DIGSA; 32 g ae/ha alone,30% and 40%
same,Visual Weed Control (%) - 22 DAA DIGSA Obs,DIGSA; 32 g ae/ha alone,28%
same,Visual Weed Control (%) - 19 DAA CYPRO Obs,CYPRO; 8 g ae/ha alone,20%
same,Visual Weed Control (%) - 19 DAA CYPRO Obs,CYPRO; 16 g ae/ha alone,88%
same,Visual Weed Control (%) - 19 DAA CYPRO Obs,CYPRO; 32 g ae/ha alone,87%
same,Visual Weed Control (%) - 21 DAA CYPRO Obs,"CYPRO; 21 DAA, 8 g ae/ha alone",40%
same,Visual Weed Control (%) - 21 DAA ECHCG Obs,ECHCG,40%
"CC(c1ccc(C(F)(F)F)nc1)S(C)(=O)=NC#N (stereo not drawn) [Sulfoxaflor, N-[methyloxido[1-[6-(trifluoromethyl)-3-pyridinyl]ethyl]-λ^4-sulfanylidene]cyanamide]",Visual Weed Control (%) - 19 DAA CYPRO Obs,CYPRO; 37.5 g ai/ha alone,0%
same,Visual Weed Control (%) - 19 DAA CYPRO Obs,CYPRO; 75 g ai/ha alone,0%
same,Visual Weed Control (%) - 19 DAA CYPRO Obs,CYPRO; 150 g ai/ha alone,0%

# Reference: US9237747B2, “Herbicidal compositions comprising 4-amino-3-chloro-5-fluoro-6-(4-chloro-2-fluoro-3-methoxyphenyl) pyridine-2-carboxylic acid or a derivative thereof and insecticides” (priority 2013, dated 2016)
